In this series the test system is mice. The experiment in a line: short-term inhalation test, acute toxicity. Type of series: in vivo. To be noted: mice exposed for four hours at 100,000 ppm in air.

On to `O=C(C(F)(F)C(F)(F)F)C(F)(C(F)(F)F)C(F)(F)F` [CF3CF2C(O)CF(CF3)2, 1,1,1,2,2,4,5,5,5-nonafluoro-4-trifluoromethyl-pentan-3-one], for which the acute toxicity entry is reported as “low acute toxicity”.

The record behind these values is patent US20120280189A1, “PERFLU[…] GASEOUS DIELECTRICS” (priority 2010, published 2012).
